Earlier results in US20260022280A1, “LOW VOC SOLVENT CEMENT FORMULATION WITH REDUCED TOXICITY AND RAPID CURING” (Ashirvad Pipes Pvt Ltd, priority 2022, published 2026).
Read-outs that look alike come from different tables or passages of the source.

Experiments:
[1] = for ECHA Concern: Yes / No
Rat [2] = conditions: in vivo
[3] = solvents
[4] = total solubility parameter
Rat [5] = conditions: 4 h
Mouse = conditions: 4 h
Rat [6] = conditions: Rat male and female

## CCOC(C)OCC [1,1 Diethoxy ethane]
At 20° C.
  Vapour Pressure: 20.25 mm Hg
[1]
  ECHA Concern: Yes

## CCOCCOCC [1,2 Diethoxy ethane]
At 20° C.
  Vapour Pressure: 9 mm Hg
[1]
  ECHA Concern: Yes

## C1COCO1 [1,3 Dioxolane]
Rat [2]; po
  LD50: 5200 mg/kg

## CC1CCCO1 (stereo not shown) [2-Methyl tetrahydrofuran]
At 20° C.
  Vapour Pressure: 102 mm Hg
[1]
  ECHA Concern: No

## CC(C)=O [ACE, Acetone]
[3]
  Density: 0.78 g/cc
[4]
  SPo (Total): 9.8 (Cal/cm^3)^1/2
At 20° C.
  Vapour Pressure: 180 mm Hg
[1]
  ECHA Concern: No

## CC(=O)CC(C)=O [Acetylacetone]
At 20° C.
  Vapour Pressure: 2.96 mm Hg

## O=C1CCCCC1 [CYH, Cyclohexanone]
[4]
  SPo (Total): 9.6 (Cal/cm^3)^1/2
At 20° C.
  Vapour Pressure: 3.75 mm Hg
[1]
  ECHA Concern: No
Rat [2]
  LD50 Oral: 1544 mg/kg
Rabbit
  LD50 Dermal: 947 mg/kg
Rat [5]; Rat
  LD50 Inhalation: 8000 ppm

## O=C1CCCC1 [Cyclopentanone]
At 20° C.
  Vapour Pressure: 11.4 mm Hg
[1]
  ECHA Concern: No

## COC1CCCC1 [Cyclopentyl Methyl Ether]
(25° C.)
  Vapour Pressure: 44.92 mm Hg
[1]
  ECHA Concern: No

## CCC(=O)CC [Diethyl ketone]
At 20° C.
  Vapour Pressure: 15 mm Hg
[1]
  ECHA Concern: No

## COC(=O)OC [Dimethyl Carbonate]
(25° C.)
  Vapour Pressure: 55.5 mm Hg
[1]
  ECHA Concern: No

## COC(=O)CCCCC(=O)OC [Dimethyl adipate]
At 20° C.
  Vapour Pressure: 0.06 mm Hg
[1]
  ECHA Concern: No

## C[S+](C)[O-] [Dimethyl sulfoxide]
At 20° C.
  Vapour Pressure: 0.44 mm Hg
[1]
  ECHA Concern: No

## CN(C)C=O [Dimethylformamide]
At 20° C.
  Vapour Pressure: 3.67 mm Hg

## CCO [Ethanol]
At 20° C.
  Vapour Pressure: 43.5 mm Hg
[1]
  ECHA Concern: Yes

## CCOC(C)=O [Ethyl acetate]
At 20° C.
  Vapour Pressure: 75 mm Hg
[1]
  ECHA Concern: No

## CCC(C)=O [MEK, Methyl Ethyl Ketone]
[3]
  Density: 0.80 g/cc
Mouse
  LC50 Inhalation: 32.000 mg/m3
At 20° C.
  Vapour Pressure: 15 mm Hg

## CCCC(C)=O [MPK, Methyl Propyl Ketone]
[3]
  Density: 0.80 g/cc
[4]
  SPo (Total): 9.6 (Cal/cm^3)^1/2
At 20° C.
  Vapour Pressure: 12 mm Hg
[1]
  ECHA Concern: No
Rat [2]
  LD50 Oral: > 16000 mg/kg
Rat [6]
  LD50 Dermal: > 6480 mg/kg

## CO [Methanol]
At 20° C.
  Vapour Pressure: 96.75 mm Hg

## CCCCCC(C)=O [Methyl amyl ketone]
At 20° C.
  Vapour Pressure: 1.5 mm Hg
[1]
  ECHA Concern: No

## CC(=O)CCC(C)C [Methyl iso amyl ketone]
At 20° C.
  Vapour Pressure: 4.5 mm Hg
[1]
  ECHA Concern: Yes

## CC(=O)C(C)C [Methyl iso propyl ketone]
At 20° C.
  Vapour Pressure: 41.25 mm Hg
[1]
  ECHA Concern: No

## CN1CCCC1=O [N-Methyl-2-Pyrrolidone]
At 20° C.
  Vapour Pressure: 0.29 mm Hg
[1]
  ECHA Concern: Yes

## CCCCOC(C)=O [N-butyl acetate]
[1]
  ECHA Concern: No

## CCN1CCCCCC1=O [N-ethyl caprolactam]
[1]
  ECHA Concern: No

## COC(C)=O [N-methylacetate]
At 20° C.
  Vapour Pressure: 173 mm Hg
[1]
  ECHA Concern: Yes

## C1CCOC1 [THF, Tetrahydrofuran]
[3]
  Density: 0.88 g/cc
At 20° C.
  Vapour Pressure: 145 mm Hg
At 20° C., listed as Tetrahydrofuran
  Vapour Pressure: 144.76 mm Hg
[1]; ECHA, harmonised classification / REACH registrations
  Hazard Classification & labelling: suspected to be Carcinogenic
[1]
  ECHA Concern: Yes
Rat [5]; Rat male and female
  LC50 Inhalation: 4 h −> 16.9 mg/l

## CC(=O)OC(C)(C)C [t-butyl acetate]
(25° C.)
  Vapour Pressure: 47.25 mm Hg
[1]
  ECHA Concern: No

## O=C1CCCO1 [γ-Butyrolactone]
At 20° C.
  Vapour Pressure: 1.12 mm Hg
[1]
  ECHA Concern: No
